Test results taken from ChEMBL document CHEMBL3769336, “Discovery of a Chemical Tool Inhibitor Targeting the Bromodomains of TRIM24 and BRPF” (J Med Chem, 2016).

Assays:
[1] = molecular target: T1, Transcription intermediary factor 1-alpha (Homo sapiens, UniProt O15164); assay: Inhibition of N-terminal His6-SUMO-1-tagged recombinant human TRIM24 bromodomain expressed in Escherichia coli BL21(DE3)-R3-pRARE2 cells by Alpha Screen assay
T1 sequence (O15164 whole entry): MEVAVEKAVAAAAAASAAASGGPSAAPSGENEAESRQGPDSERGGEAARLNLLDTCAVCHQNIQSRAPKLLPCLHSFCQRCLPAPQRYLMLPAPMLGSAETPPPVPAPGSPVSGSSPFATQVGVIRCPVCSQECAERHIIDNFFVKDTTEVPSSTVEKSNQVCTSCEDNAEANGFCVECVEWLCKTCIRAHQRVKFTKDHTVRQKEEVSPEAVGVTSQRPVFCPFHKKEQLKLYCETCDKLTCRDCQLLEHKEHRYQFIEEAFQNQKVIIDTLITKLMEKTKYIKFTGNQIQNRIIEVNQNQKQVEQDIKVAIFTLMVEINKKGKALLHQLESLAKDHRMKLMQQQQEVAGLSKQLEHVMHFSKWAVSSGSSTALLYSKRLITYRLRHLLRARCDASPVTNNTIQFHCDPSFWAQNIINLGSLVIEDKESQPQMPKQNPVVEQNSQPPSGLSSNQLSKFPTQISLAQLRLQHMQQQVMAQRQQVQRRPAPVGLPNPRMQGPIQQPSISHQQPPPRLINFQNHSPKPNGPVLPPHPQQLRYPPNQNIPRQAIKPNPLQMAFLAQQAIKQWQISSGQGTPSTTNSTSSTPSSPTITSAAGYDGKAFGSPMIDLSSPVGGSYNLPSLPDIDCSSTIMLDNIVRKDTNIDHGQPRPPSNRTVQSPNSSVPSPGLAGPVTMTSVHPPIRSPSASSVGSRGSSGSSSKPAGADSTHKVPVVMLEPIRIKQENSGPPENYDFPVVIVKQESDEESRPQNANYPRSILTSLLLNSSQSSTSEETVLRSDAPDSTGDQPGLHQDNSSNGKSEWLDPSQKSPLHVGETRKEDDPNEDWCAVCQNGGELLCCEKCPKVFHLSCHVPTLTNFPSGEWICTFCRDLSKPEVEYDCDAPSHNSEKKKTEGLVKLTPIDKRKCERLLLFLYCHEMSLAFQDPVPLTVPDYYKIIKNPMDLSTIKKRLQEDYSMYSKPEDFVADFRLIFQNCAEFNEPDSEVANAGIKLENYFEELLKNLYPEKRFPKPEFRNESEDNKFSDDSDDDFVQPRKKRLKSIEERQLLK

Peregrin = molecular target: T2, Peregrin (Homo sapiens, UniProt P55201); assay: Inhibition of BRPF1B (unknown origin) by Alpha Screen assay
T2 sequence (P55201 whole entry): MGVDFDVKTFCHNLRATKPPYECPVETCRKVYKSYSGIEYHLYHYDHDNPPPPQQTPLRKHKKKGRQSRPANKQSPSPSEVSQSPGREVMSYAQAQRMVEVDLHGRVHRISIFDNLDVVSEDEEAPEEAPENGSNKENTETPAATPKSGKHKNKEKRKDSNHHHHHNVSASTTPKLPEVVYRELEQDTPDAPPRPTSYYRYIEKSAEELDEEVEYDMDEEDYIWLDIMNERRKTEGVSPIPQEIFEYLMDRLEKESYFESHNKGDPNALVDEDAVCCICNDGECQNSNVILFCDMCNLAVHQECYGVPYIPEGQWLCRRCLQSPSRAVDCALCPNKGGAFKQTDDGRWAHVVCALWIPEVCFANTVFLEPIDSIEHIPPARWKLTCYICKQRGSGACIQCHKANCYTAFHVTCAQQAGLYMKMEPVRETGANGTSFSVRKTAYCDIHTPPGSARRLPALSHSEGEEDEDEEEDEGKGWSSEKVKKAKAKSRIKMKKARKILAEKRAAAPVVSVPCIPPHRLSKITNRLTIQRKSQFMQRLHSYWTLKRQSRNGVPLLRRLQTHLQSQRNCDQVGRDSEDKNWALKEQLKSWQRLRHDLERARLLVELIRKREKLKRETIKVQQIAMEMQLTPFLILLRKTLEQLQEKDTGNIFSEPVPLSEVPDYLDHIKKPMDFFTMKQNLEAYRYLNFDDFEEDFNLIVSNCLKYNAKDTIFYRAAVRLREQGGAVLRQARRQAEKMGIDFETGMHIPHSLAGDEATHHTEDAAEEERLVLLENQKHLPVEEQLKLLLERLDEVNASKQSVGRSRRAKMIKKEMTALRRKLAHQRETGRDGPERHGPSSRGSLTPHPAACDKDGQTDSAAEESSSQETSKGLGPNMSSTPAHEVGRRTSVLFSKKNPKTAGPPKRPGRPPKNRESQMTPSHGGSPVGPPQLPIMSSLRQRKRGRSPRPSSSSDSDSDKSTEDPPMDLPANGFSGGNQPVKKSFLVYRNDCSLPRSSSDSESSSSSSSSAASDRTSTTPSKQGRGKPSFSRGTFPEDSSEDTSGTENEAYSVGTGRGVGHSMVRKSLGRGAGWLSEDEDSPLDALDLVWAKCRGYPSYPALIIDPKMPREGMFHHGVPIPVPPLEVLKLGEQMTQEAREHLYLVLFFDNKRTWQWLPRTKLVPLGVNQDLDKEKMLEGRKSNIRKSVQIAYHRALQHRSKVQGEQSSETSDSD

[2] = molecular target: T3, Bromodomain-containing protein 1 (Homo sapiens, UniProt O95696); assay: Inhibition of BRPF2 BRD1 (unknown origin) by Alpha Screen assay
T3 sequence (O95696 whole entry): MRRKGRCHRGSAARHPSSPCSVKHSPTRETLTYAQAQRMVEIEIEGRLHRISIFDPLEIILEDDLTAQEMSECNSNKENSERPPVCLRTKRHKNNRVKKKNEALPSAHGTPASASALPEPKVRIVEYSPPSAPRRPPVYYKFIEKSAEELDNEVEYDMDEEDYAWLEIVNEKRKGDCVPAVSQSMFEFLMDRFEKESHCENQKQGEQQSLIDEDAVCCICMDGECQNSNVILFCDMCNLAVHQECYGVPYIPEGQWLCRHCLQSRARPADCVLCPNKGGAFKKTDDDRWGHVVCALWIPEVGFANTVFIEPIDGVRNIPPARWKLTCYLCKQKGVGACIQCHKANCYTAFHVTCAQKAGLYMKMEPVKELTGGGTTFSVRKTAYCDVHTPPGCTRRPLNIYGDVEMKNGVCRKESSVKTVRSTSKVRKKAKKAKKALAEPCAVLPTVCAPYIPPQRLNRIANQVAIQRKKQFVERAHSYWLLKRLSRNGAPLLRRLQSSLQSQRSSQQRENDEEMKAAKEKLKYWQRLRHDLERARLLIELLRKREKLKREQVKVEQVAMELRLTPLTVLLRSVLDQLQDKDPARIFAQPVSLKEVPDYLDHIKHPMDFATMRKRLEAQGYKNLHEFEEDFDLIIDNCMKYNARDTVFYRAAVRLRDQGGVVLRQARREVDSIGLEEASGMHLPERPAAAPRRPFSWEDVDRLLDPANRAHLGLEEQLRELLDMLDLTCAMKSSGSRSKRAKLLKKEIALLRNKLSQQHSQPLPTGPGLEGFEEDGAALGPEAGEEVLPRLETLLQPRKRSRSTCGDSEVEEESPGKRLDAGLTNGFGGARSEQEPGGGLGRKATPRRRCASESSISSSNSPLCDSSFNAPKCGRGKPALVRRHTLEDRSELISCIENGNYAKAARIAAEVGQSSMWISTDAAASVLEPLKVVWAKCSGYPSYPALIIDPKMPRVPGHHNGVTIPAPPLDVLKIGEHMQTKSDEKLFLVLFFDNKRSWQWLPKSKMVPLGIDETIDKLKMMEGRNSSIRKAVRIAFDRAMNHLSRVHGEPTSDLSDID

Row | Structure (SMILES) | IC50 [1] | IC50 (Peregrin) | IC50 [2]
1 | Cc1ccccc1S(=O)(=O)Nc1cc2c(cc1Oc1ccccc1)n(C)c(=O)n2C | 2620 nM | 430 nM | 1700 nM
2 | Cc1ccc(F)cc1S(=O)(=O)Nc1cc2c(cc1Oc1ccccc1)n(C)c(=O)n2C | 3420 nM | 790 nM | 2420 nM
3 | COc1ccc(Oc2cc3c(cc2NS(=O)(=O)c2ccccc2C)n(C)c(=O)n3C)cc1 | 1470 nM | 680 nM | 2380 nM
4 | COc1cccc(S(=O)(=O)Nc2cc3c(cc2Oc2ccccc2)n(C)c(=O)n3C)c1 | 2380 nM | 430 nM | 1990 nM
5 | Cc1ccc(S(=O)(=O)Nc2cc3c(cc2Oc2ccccc2)n(C)c(=O)n3C)cc1C | 4770 nM | 3100 nM | 5160 nM
6 | Cc1ccc(S(=O)(=O)Nc2cc3c(cc2Oc2ccccc2)n(C)c(=O)n3C)cc1 | 1270 nM | 510 nM | 2920 nM
7 | COc1ccc(S(=O)(=O)Nc2cc3c(cc2Oc2ccccc2)n(C)c(=O)n3C)cc1OC | 480 nM | 290 nM | 1210 nM
8 | COc1ccc(S(=O)(=O)Nc2cc3c(cc2Oc2ccccc2)n(C)c(=O)n3C)cc1 | 740 nM | 340 nM | 1330 nM
9 | COc1ccc(Oc2cc3c(cc2NS(=O)(=O)c2ccc(C)cc2)n(C)c(=O)n3C)cc1 | 2700 nM | 2240 nM | > 10000 nM
10 | COc1ccc(Oc2cc3c(cc2NS(=O)(=O)c2ccc(OC)cc2)n(C)c(=O)n3C)cc1 | 770 nM | 660 nM | 3580 nM
11 | COc1ccc(Oc2cc3c(cc2NS(=O)(=O)c2ccccc2)n(C)c(=O)n3C)cc1 | 730 nM | 660 nM | 2770 nM
12 | Cc1ccc(S(=O)(=O)Nc2cc3c(cc2Oc2ccccc2)n(C)c(=O)n3C)cc1F | 2700 nM | 1050 nM | 3690 nM
13 | CCCOc1ccc(S(=O)(=O)Nc2cc3c(cc2Oc2ccc(OC)cc2)n(C)c(=O)n3C)cc1 | 8400 nM | 6720 nM | > 10000 nM
14 | Cc1cc(Cl)ccc1S(=O)(=O)Nc1cc2c(cc1Oc1ccccc1)n(C)c(=O)n2C | 2450 nM | 1170 nM | 2390 nM
15 | Cn1c(=O)n(C)c2cc(Oc3ccccc3)c(NS(=O)(=O)c3ccc(Cl)cc3)cc21 | 1560 nM | 270 nM | 3470 nM
16 | Cn1c(=O)n(C)c2cc(Oc3ccccc3)c(NS(=O)(=O)c3ccc4c(c3)CCCC4)cc21 | > 10000 nM | 2680 nM | 2670 nM
17 | COc1cc2c(cc1NS(=O)(=O)c1ccc(Br)cc1C)n(C)c(=O)n2C | – | – | 1200 nM

Other lines, results leading:

Row | IC50 [1] | IC50 (Peregrin) | IC50 [2] | Structure (SMILES)
18 | > 10000 nM | 590 nM | 6140 nM | Cc1ccc(S(=O)(=O)Nc2ccc3c(c2)n(C)c(=O)n3C)cc1F
19 | 6170 nM | 330 nM | 2050 nM | Cn1c(=O)n(C)c2cc(NS(=O)(=O)c3ccc4c(c3)CCCC4)ccc21
20 | 3450 nM | 420 nM | 4300 nM | CC(C)c1ccc(S(=O)(=O)Nc2ccc3c(c2)n(C)c(=O)n3C)cc1
21 | > 10000 nM | 1400 nM | > 10000 nM | COC1(C)Oc2cc(S(=O)(=O)Nc3ccc4c(c3)n(C)c(=O)n4C)ccc2O[C@]1(C)OC (stereo not given in full)
22 | 3690 nM | 310 nM | 2460 nM | Cn1c(=O)n(C)c2cc(NS(=O)(=O)c3ccc4c(c3)CCC(C)(C)O4)ccc21
23 | 4630 nM | 270 nM | 1600 nM | Cn1c(=O)n(C)c2cc(NS(=O)(=O)c3ccc4c(c3)CCCO4)ccc21
24 | > 10000 nM | 290 nM | 1710 nM | Cn1c(=O)n(C)c2cc(NS(=O)(=O)c3ccc4c(c3)CCC4)ccc21
